Results from patent US11524961B2, “JAK kinase inhibitor and preparation method and use thereof” (Shanghai Longwood Biopharmaceuticals Co., Ltd., priority 2017, dated 2022).
Like-named read-outs stand apart in the source and are kept apart here.

Experiments:
[1] = molecular target: JAK2 (Homo sapiens (Human), UniProt O60674); test: JAK2 enzyme activity inhibition (LANCE Ultra kinase assay)
[2] = molecular target: JAK3 (Homo sapiens (Human), UniProt P52333); test: JAK3 enzyme activity inhibition (LANCE Ultra kinase assay); settings: read-out: JAK3 inhibitory activity IC50
Sequence of JAK3 (P52333 whole entry): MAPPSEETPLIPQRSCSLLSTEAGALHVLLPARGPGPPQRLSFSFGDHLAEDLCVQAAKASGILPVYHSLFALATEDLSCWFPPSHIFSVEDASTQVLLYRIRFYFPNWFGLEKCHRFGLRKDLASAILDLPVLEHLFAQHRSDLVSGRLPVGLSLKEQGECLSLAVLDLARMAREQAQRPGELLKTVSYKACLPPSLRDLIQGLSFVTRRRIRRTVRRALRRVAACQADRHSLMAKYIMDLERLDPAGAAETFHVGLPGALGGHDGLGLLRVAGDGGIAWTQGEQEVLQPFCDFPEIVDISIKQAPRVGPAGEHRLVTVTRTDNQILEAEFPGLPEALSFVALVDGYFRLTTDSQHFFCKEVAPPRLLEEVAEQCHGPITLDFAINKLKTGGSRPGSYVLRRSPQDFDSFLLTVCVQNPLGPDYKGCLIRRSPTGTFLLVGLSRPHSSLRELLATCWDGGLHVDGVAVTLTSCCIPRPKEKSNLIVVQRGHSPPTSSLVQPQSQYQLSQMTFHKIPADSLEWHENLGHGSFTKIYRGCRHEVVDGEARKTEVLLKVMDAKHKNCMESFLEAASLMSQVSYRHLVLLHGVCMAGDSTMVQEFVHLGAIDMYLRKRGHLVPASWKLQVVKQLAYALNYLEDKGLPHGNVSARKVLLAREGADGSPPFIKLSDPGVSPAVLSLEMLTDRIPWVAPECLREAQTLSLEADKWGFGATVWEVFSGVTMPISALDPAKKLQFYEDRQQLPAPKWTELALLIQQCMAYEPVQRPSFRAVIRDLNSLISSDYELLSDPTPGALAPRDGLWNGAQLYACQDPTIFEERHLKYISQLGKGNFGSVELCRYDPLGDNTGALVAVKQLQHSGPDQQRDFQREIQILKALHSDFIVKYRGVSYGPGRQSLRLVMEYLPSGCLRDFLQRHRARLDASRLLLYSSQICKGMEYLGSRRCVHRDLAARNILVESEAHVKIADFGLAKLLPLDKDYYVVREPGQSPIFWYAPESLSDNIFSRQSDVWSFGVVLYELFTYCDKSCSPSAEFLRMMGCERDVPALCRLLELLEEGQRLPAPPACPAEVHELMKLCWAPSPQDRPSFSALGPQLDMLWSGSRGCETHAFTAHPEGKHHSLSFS

Sequence of JAK2 (O60674 whole entry): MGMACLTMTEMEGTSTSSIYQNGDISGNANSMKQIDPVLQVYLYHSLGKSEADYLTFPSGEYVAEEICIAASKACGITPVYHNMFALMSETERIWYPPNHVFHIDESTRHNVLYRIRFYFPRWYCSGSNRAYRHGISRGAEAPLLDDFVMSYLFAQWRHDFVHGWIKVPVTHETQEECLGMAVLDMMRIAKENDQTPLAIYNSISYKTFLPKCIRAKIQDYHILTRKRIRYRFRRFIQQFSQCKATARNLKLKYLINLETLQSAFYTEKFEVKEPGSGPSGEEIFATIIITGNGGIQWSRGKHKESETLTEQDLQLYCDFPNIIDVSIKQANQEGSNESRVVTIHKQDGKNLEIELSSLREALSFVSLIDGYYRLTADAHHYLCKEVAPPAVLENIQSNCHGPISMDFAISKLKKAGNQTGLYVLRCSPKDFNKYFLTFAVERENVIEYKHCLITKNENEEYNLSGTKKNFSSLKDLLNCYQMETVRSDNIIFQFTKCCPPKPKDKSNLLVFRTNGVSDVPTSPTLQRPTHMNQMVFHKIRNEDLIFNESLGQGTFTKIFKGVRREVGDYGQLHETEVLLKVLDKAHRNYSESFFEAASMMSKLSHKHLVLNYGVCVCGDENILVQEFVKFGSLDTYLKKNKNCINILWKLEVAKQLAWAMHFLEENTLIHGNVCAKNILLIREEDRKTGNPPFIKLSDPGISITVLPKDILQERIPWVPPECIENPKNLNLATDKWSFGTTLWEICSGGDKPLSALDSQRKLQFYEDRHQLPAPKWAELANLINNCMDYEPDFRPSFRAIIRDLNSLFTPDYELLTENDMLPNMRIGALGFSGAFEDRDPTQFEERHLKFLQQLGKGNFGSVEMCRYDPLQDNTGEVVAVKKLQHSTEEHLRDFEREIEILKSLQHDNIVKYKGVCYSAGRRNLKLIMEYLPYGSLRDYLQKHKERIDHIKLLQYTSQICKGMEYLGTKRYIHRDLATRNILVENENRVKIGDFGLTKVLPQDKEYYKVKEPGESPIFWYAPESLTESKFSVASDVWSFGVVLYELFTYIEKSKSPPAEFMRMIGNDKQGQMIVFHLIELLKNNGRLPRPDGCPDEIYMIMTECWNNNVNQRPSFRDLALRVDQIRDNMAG

Row | Structure (SMILES) | IC50 [1] | IC50 [2] | IC50 ([1]; read-out: JAK2 inhibitory activity IC50, class symbols)
1 | CN=S(C)(=O)N1CC(CC#N)(n2cc(-c3ncnc4[nH]ccc34)cn2)C1 (centres unmarked) [LW104-F] | 0.1 to 10 nM | 145 nM | –
2 | CCS(=N)(=O)N1CC(CC#N)(n2cc(-c3ncnc4[nH]ccc34)cn2)C1 (single isomer, unassigned) [LW104-J] | 0.1 to 10 nM | 116 nM | –
3 | N#CCC1(n2cc(-c3ncnc4[nH]ccc34)cn2)CN(S(=O)(=NC2CC2)C2CC2)C1 (centres unmarked) [LW104-N] | 0.1 to 10 nM | 203 nM | –
4 | CCS(=N)(=O)N1CC(CC#N)(n2cc(-c3ncnc4[nH]ccc34)cn2)C1 (single isomer, unassigned) [LW104-K] | – | 69.3 nM | 0.1 to 10 nM
5 | CC(C)N=S(C)(=O)N1CC(CC#N)(n2cc(-c3ncnc4[nH]ccc34)cn2)C1 (centres unmarked) [LW104-I] | 10 to 100 nM | 649 nM | –
6 | CCS(=O)(=NC)N1CC(CC#N)(n2cc(-c3ncnc4[nH]ccc34)cn2)C1 (centres unmarked) [LW104-P] | 10 to 100 nM | 216 nM | –
7 | N#CCC1(n2cc(-c3ncnc4[nH]ccc34)cn2)CN(S(=N)(=O)C2CC2)C1 (centres unmarked) [LW104-E] | 0.1 to 10 nM | 187 nM | –
8 | CS(=N)(=O)N1CC(CC#N)(n2cc(-c3ncnc4[nH]ccc34)cn2)C1 (centres unmarked) [LW104-A] | 0.1 to 10 nM | 98.3 nM | –
9 | CN=S(=O)(C1CC1)N1CC(CC#N)(n2cc(-c3ncnc4[nH]ccc34)cn2)C1 (centres unmarked) [LW104-L] | 0.1 to 10 nM | 158 nM | –
10 | CC(N=[S@@](C)(=O)N1CC(CC#N)(n2cc(-c3ncnc4[nH]ccc34)cn2)C1)c1ccccc1 (stereo in doubt) [LW104-G] | 10 to 100 nM | – | –
11 | CCN=S(=O)(C1CC1)N1CC(CC#N)(n2cc(-c3ncnc4[nH]ccc34)cn2)C1 (centres unmarked) [LW104-M] | – | 194 nM | –
12 | N#CCC1(n2cc(-c3ncnc4[nH]ccc34)cn2)CN(S(=N)(=O)c2ccccc2)C1 (centres unmarked) [LW104-C] | 10 to 100 nM | 427 nM | –
13 | CCS(=O)(=NC1CC1)N1CC(CC#N)(n2cc(-c3ncnc4[nH]ccc34)cn2)C1 (centres unmarked) [LW104-O] | – | 294 nM | –
14 | CC(C)S(=N)(=O)N1CC(CC#N)(n2cc(-c3ncnc4[nH]ccc34)cn2)C1 (centres unmarked) [LW104-D] | – | 190 nM | –
15 | CCS(=N)(=O)N1CC(CC#N)(n2cc(-c3ncnc4[nH]ccc34)cn2)C1 (centres unmarked) [LW104-B] | 0.1 to 10 nM | 136 nM | –
